Where “and” joins values, the source holds several entries; their conditions need not be identical. Equal values may be shown once. Toxic doses and inconclusive results are not listed. Non-standard residues stand in square brackets, D forms with d. Residues, ends and D or L forms follow the SMILES beside them. Deg = CCC(N)(CC)C(=O)O
System: CD2F1 mice, L1210 leukemia ip, survival T/C
Test: NCI In Vivo Anticancer Drug Screen. Data for tumor model L1210 Leukemia (intraperitoneal) in CD2F1 (CDF1) mice
Conditions: higher = longer survival
Summary of the method: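 Each value reflects a quotient of treated over vehicle control outcomes in mice with a transplanted tumor.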

[1] = endpoint: mean survival time, dose: 100.0 mg/kg/injection, schedule: Q04DX003 (ip), vehicle: saline with Tween-80
[2] = endpoint: mean survival time, dose: 200.0 mg/kg/injection, schedule: Q04DX003 (ip), vehicle: saline with Tween-80
[3] = endpoint: mean survival time, dose: 400.0 mg/kg/injection, schedule: Q04DX003 (ip), vehicle: saline with Tween-80
[4] = endpoint: mean survival time, dose: 50.0 mg/kg/injection, schedule: Q01DX009 (ip), vehicle: saline with Tween-80
[5] = endpoint: mean survival time, dose: 100.0 mg/kg/injection, schedule: Q01DX009 (ip), vehicle: saline with Tween-80
[6] = endpoint: mean survival time, dose: 200.0 mg/kg/injection, schedule: Q01DX009 (ip), vehicle: saline with Tween-80
[7] = endpoint: mean survival time, dose: 400.0 mg/kg/injection, schedule: Q01DX009 (ip), vehicle: saline with Tween-80
[8] = endpoint: mean survival time, dose: 12.5 mg/kg/injection, schedule: Q01DX009 (ip), vehicle: saline with Tween-80
[9] = endpoint: mean survival time, dose: 25.0 mg/kg/injection, schedule: Q01DX009 (ip), vehicle: saline with Tween-80
[10] = endpoint: mean survival time, dose: 25.0 mg/kg/injection, schedule: Q04DX003 (ip), vehicle: saline with Tween-80
[11] = endpoint: mean survival time, dose: 25.0 mg/kg/injection, schedule: Q01DX009 (ip), vehicle: saline
[12] = endpoint: mean survival time, dose: 50.0 mg/kg/injection, schedule: Q01DX009 (ip), vehicle: saline
[13] = endpoint: mean survival time, dose: 100.0 mg/kg/injection, schedule: Q01DX009 (ip), vehicle: saline
[14] = endpoint: mean survival time, dose: 200.0 mg/kg/injection, schedule: Q01DX009 (ip), vehicle: saline
[15] = endpoint: mean survival time, dose: 100.0 mg/kg/injection, schedule: Q04DX002 (ip), vehicle: saline with Tween-80
[16] = endpoint: mean survival time, dose: 200.0 mg/kg/injection, schedule: Q04DX002 (ip), vehicle: saline with Tween-80
[17] = endpoint: mean survival time, dose: 400.0 mg/kg/injection, schedule: Q04DX002 (ip), vehicle: saline with Tween-80

Compound: NC(N)=NCCc1ccccc1
- T/C (endpoint: mean survival time, dose: 5.0 mg/kg/injection, schedule: Q01DX009 (ip), vehicle: saline): 102 % of control
- T/C (endpoint: mean survival time, dose: 5.0 mg/kg/injection, schedule: Q04DX003 (ip), vehicle: saline): 92 % of control
- T/C (endpoint: mean survival time, dose: 10.0 mg/kg/injection, schedule: Q01DX009 (ip), vehicle: saline): 103 % of control
- T/C (endpoint: mean survival time, dose: 10.0 mg/kg/injection, schedule: Q04DX003 (ip), vehicle: saline): 102 % of control
- T/C (endpoint: mean survival time, dose: 20.0 mg/kg/injection, schedule: Q01DX009 (ip), vehicle: saline): 96 % of control
- T/C (endpoint: mean survival time, dose: 20.0 mg/kg/injection, schedule: Q04DX003 (ip), vehicle: saline): 97 % of control

Compound: O=C(Nc1cc(Cl)c(Cl)cc1Cl)Nc1cc(Cl)ccc1Oc1ccc(Cl)cc1S(=O)(=O)O
- T/C (endpoint: mean survival time, dose: 100.0 mg/kg/injection, schedule: Q01DX001 (ip), vehicle: saline with Tween-80): 96 % of control
- T/C (endpoint: mean survival time, dose: 200.0 mg/kg/injection, schedule: Q01DX001 (ip), vehicle: saline with Tween-80): 98 % of control

Compound: O=C1NC2COC3COc4ccccc4OC3C2N1Cc1ccccc1 (configuration not stated)
- T/C (endpoint: mean survival time, dose: 75.0 mg/kg/injection, schedule: Q01DX001 (ip), vehicle: saline with Tween-80): 93 % of control
- T/C (endpoint: mean survival time, dose: 150.0 mg/kg/injection, schedule: Q01DX001 (ip), vehicle: saline with Tween-80): 95 % of control
- T/C (endpoint: mean survival time, dose: 300.0 mg/kg/injection, schedule: Q01DX001 (ip), vehicle: saline with Tween-80): 93 % of control

Compound: N#CC1=C(NC2OCC(O)C(O)C2O)CCC1 (configuration not stated)
- T/C (endpoint: mean survival time, dose: 12.5 mg/kg/injection, schedule: Q01DX005 (ip), vehicle: other): 108 % of control
- T/C (endpoint: mean survival time, dose: 25.0 mg/kg/injection, schedule: Q01DX005 (ip), vehicle: other): 95 % of control
- T/C (endpoint: mean survival time, dose: 50.0 mg/kg/injection, schedule: Q01DX005 (ip), vehicle: other): 98 % of control
- T/C (endpoint: mean survival time, dose: 100.0 mg/kg/injection, schedule: Q01DX005 (ip), vehicle: other): 98 % of control
- T/C (endpoint: mean survival time, dose: 200.0 mg/kg/injection, schedule: Q01DX005 (ip), vehicle: other): 89 % of control

Compound: COc1ccc(OC)c(/C=N/N=C/c2cc(OC)ccc2OC)c1
- T/C [1]: 106 % of control
- T/C [2]: 94 % of control
- T/C [3]: 94 % of control

Compound: O=C(CNC(=O)Nc1cccc(C(F)(F)F)c1)N/N=C/c1cccs1
- T/C [4]: 88 % of control
- T/C [5]: 96 % of control
- T/C [6]: 92 % of control

Compound: CC(=O)c1ccc(N=Nc2c(N)nc(N)nc2N)cc1
- T/C [5]: 92 % of control
- T/C [1]: 89 % of control
- T/C [6]: 97 % of control
- T/C [2]: 87 % of control
- T/C [7]: 98 % of control
- T/C [3]: 89 % of control

Compound: CSc1ccc(OC(=O)Nc2ccc(C)cc2C)cc1C
- T/C [8]: 95 % of control
- T/C [9]: 91 % of control
- T/C [4]: 87 % of control and 89 % of control
- T/C [6]: 93 % of control

Compound: Nc1ccc(CNC(=O)Nc2ccc(S(=O)(=O)F)cc2)cc1
- T/C [10]: 95 % of control
- T/C (endpoint: mean survival time, dose: 50.0 mg/kg/injection, schedule: Q04DX003 (ip), vehicle: saline with Tween-80): 91 % of control
- T/C [1]: 110 % of control
- T/C [2]: 92 % of control
- T/C [3]: 92 % of control

Compound: C1=N/C=C\C=C/c2ccc[n+](CCCCC[n+]3ccccc3-c3ccccn3)c21
- T/C (endpoint: mean survival time, dose: 7.5 mg/kg/injection, schedule: Q01DX001 (ip), vehicle: saline): 98 % of control
- T/C (endpoint: mean survival time, dose: 7.5 mg/kg/injection, schedule: Q04DX003 (ip), vehicle: saline): 108 % of control
- T/C (endpoint: mean survival time, dose: 15.0 mg/kg/injection, schedule: Q01DX001 (ip), vehicle: saline): 98 % of control
- T/C (endpoint: mean survival time, dose: 15.0 mg/kg/injection, schedule: Q04DX003 (ip), vehicle: saline): 100 % of control
- T/C (endpoint: mean survival time, dose: 30.0 mg/kg/injection, schedule: Q01DX001 (ip), vehicle: saline): 98 % of control
- T/C (endpoint: mean survival time, dose: 30.0 mg/kg/injection, schedule: Q04DX003 (ip), vehicle: saline): 102 % of control

Compound: O=[N+]([O-])c1nccn1CC(O)CO (configuration not stated)
- T/C (endpoint: mean survival time, dose: 12.5 mg/kg/injection, schedule: Q01DX009 (ip), vehicle: saline): 102 % of control
- T/C [11]: 105 % of control
- T/C [12]: 102 % of control
- T/C [13]: 101 % of control
- T/C [14]: 102 % of control
- T/C (endpoint: mean survival time, dose: 400.0 mg/kg/injection, schedule: Q01DX009 (ip), vehicle: saline): 103 % of control

Compound: Nc1nc(N)c2cc(CCc3ccccc3)ccc2n1
- T/C (endpoint: mean survival time, dose: 6.25 mg/kg/injection, schedule: Q01DX009 (ip), vehicle: saline with Tween-80): 105 % of control
- T/C (endpoint: mean survival time, dose: 6.25 mg/kg/injection, schedule: Q04DX003 (ip), vehicle: saline with Tween-80): 98 % of control
- T/C [8]: 100 % of control
- T/C (endpoint: mean survival time, dose: 12.5 mg/kg/injection, schedule: Q04DX003 (ip), vehicle: saline with Tween-80): 98 % of control
- T/C [9]: 104 % of control
- T/C [10]: 98 % of control
- T/C (endpoint: mean survival time, dose: 50.0 mg/kg/injection, schedule: Q01DX009 (ip), vehicle: Klucel (hydroxypropylcellulose) (HPC)): 106 % of control

Compound: CC(C)(O)C(=NCc1ccccc1)c1ccccc1
- T/C (endpoint: mean survival time, dose: 100.0 mg/kg/injection, schedule: Q01DX001 (ip), vehicle: saline): 102 % of control
- T/C (endpoint: mean survival time, dose: 200.0 mg/kg/injection, schedule: Q01DX001 (ip), vehicle: saline): 93 % of control
- T/C (endpoint: mean survival time, dose: 400.0 mg/kg/injection, schedule: Q01DX001 (ip), vehicle: saline): 104 % of control

Compound: O=C1Cc2ccccc2O1
- T/C [11]: 93 % of control
- T/C [12]: 96 % of control
- T/C [13]: 100 % of control
- T/C [14]: 97 % of control

Compound: O=C(c1ccccc1)C12CC3CC1C2C3
- T/C (endpoint: mean survival time, dose: 100.0 mg/kg/injection, schedule: Q04DX003 (ip), vehicle: saline): 97 % of control
- T/C (endpoint: mean survival time, dose: 200.0 mg/kg/injection, schedule: Q04DX003 (ip), vehicle: saline): 100 % of control
- T/C (endpoint: mean survival time, dose: 400.0 mg/kg/injection, schedule: Q04DX003 (ip), vehicle: saline): 89 % of control

Compound: C=C1C(=O)OC2CC1C(OC(C)=O)CC1(C)OC1CCC1(C)OC1CCC2(C)O (configuration not stated)
- T/C (endpoint: mean survival time, dose: 6.25 mg/kg/injection, schedule: Q01DX009 (ip), vehicle: Klucel (hydroxypropylcellulose) (HPC)): 102 % of control
- T/C (endpoint: mean survival time, dose: 12.5 mg/kg/injection, schedule: Q01DX009 (ip), vehicle: Klucel (hydroxypropylcellulose) (HPC)): 107 % of control
- T/C (endpoint: mean survival time, dose: 25.0 mg/kg/injection, schedule: Q01DX009 (ip), vehicle: Klucel (hydroxypropylcellulose) (HPC)): 105 % of control

Compound: N#C/C(C(=S)S)=C(/O)c1ccccc1
- T/C [9]: 102 % of control
- T/C [4]: 101 % of control
- T/C [5]: 102 % of control
- T/C [1]: 94 % of control

Compound: Nc1ncc(C2OC(CO)C(O)C2O)c(N)n1 (configuration not stated)
- T/C (endpoint: mean survival time, dose: 25.0 mg/kg/injection, schedule: Q01DX009 (ip), vehicle: water): 91 % of control
- T/C (endpoint: mean survival time, dose: 50.0 mg/kg/injection, schedule: Q01DX009 (ip), vehicle: water): 100 % of control
- T/C (endpoint: mean survival time, dose: 100.0 mg/kg/injection, schedule: Q01DX009 (ip), vehicle: water): 95 % of control
- T/C (endpoint: mean survival time, dose: 200.0 mg/kg/injection, schedule: Q01DX009 (ip), vehicle: water): 88 % of control
- T/C (endpoint: mean survival time, dose: 400.0 mg/kg/injection, schedule: Q01DX009 (ip), vehicle: water): 91 % of control

Compound: COC12C(COC(N)=O)C3=C(C(=O)C(C)=C(N4CCN(C)CC4)C3=O)N1CC1NC12 (configuration not stated)
- T/C (endpoint: median survival time, dose: 1.5 mg/kg/injection, schedule: Q01DX001 (ip), vehicle: water): 155 % of control
- T/C (endpoint: median survival time, dose: 3.0 mg/kg/injection, schedule: Q01DX001 (ip), vehicle: water): 124 % of control
- T/C (endpoint: median survival time, dose: 6.0 mg/kg/injection, schedule: Q01DX001 (ip), vehicle: water): 87 % of control
- T/C (endpoint: median survival time, dose: 375.0 micrograms/kg/injection, schedule: Q01DX001 (ip), vehicle: water): 102 % of control and 106 % of control
- T/C (endpoint: median survival time, dose: 750.0 micrograms/kg/injection, schedule: Q01DX001 (ip), vehicle: water): 90 % of control and 102 % of control
- T/C (endpoint: median survival time, dose: 1500.0 micrograms/kg/injection, schedule: Q01DX001 (ip), vehicle: water): 101 % of control and 106 % of control
- T/C (endpoint: median survival time, dose: 3000.0 micrograms/kg/injection, schedule: Q01DX001 (ip), vehicle: water): 94 % of control and 106 % of control
- T/C (endpoint: median survival time, dose: 6000.0 micrograms/kg/injection, schedule: Q01DX001 (ip), vehicle: water): 102 % of control and 105 % of control

Compound: CCOCCNc1ccc([N+](=O)[O-])cc1[N+](=O)[O-]
- T/C [15]: 91 % of control
- T/C [16]: 91 % of control
- T/C [17]: 98 % of control

Compound: O=[N+]([O-])c1ccc(Cl)c2ncccc12
- T/C [1]: 101 % of control
- T/C [2]: 104 % of control

Compound: CCC(CC)(NC(=O)CN)C(=O)O (H-Gly-[Deg]-OH)
- T/C [15]: 96 % of control
- T/C [16]: 104 % of control
- T/C [17]: 96 % of control

Compound: CC1=C/C(=N/NC(N)=O)CC(C)C1 (configuration not stated)
- T/C [5]: 91 % of control
- T/C [6]: 97 % of control
- T/C [7]: 98 % of control
